Results taken from patent US20260375233A1, “COMPOSITION FOR IMPROVING SKIN WRINKLES” (LG H&H CO., LTD., priority 2022, published 2026).

Tests used:
Format in all cases: cell-based
SGPP2 = SGPP2 gene expression (qPCR) in human skin fibroblasts; settings: 24 hours, FIG. 15
Experimental: (§1) Human skin fibroblasts (NHDF-Neo-Human Dermal Fibroblasts, Neonatal, Lonza, CC-2509) were purchased from Lonza and then used. The purchased cells were cultured in an incubator (37 °C, 5% CO2) using media prepared by mixing Dulbecco Modified Eagle Medium (DMEM, Thermo Fisher Scientific) with 10% fetal bovine serum (FBS) and 1% antibiotics (penicillin streptomycin).
(§2) To analyze the efficacy of promoting collagen mRNA synthesis, human skin fibroblasts were dispensed on a 6-well plate at 1.5×10^5 cells/well and cultured in an incubator (37 °C, 5% CO2) for 24 hours. The substances were added to serum free media at an appropriate concentration/combination, and then the cells were again cultured for 24 hours under the same conditions. Thereafter, mRNA was obtained using an RNA-spin total RNA extraction kit (iNtRON Biotechnology, 17211), and cDNA was synthesized using a cDNA synthesis kit (PhileKorea Technology, ET21100). The expression level of each gene was analyzed by performing qPCR using the synthesized cDNA and taqman probes (assay ID: COL1A1-Hs00164004_m1, COL4A1-Hs00266237_m1, sgpp2-Hs00544786_m1), ADIPOQ F primer (5′-[…]-3′), and ADIPOQ R primer (5′-[…]-3′).
For example, SGPP2 is a gene expressing an enzyme capable of dominantly acting in an inflammation status, and the overactivity of SGPP2 may be more vulnerable to inflammatory signals. […]

[1] = test system: Type IV collagen (COL4A1); assay: collagen mRNA synthesis promotion (qPCR), COL4A1 in human skin fibroblasts; settings: 24 hours, mRNA by qPCR
Experimental: as §1
(§3) To analyze the efficacy of promoting collagen mRNA synthesis, human skin fibroblasts were dispensed on a 6-well plate at 1.5×10^5 cells/well and cultured in an incubator (37 °C, 5% CO2) for 24 hours. The substances were added to serum free media at an appropriate concentration/combination, and then the cells were again cultured for 24 hours under the same conditions. Thereafter, mRNA was obtained using an RNA-spin total RNA extraction kit (iNtRON Biotechnology, 17211), and cDNA was synthesized using a cDNA synthesis kit (PhileKorea Technology, ET21100). The expression level of each gene was analyzed by performing qPCR using the synthesized cDNA and taqman probes (assay ID: COL1A1-Hs00164004_m1, COL3A1-Hs00943809_m1, COL4A1-Hs00266237_m1, BNC2-Hs00417700_m1, EDAR-Hs00223468_m1).
as §2

Type I collagen (COL1A1) = assay: collagen mRNA synthesis promotion (qPCR), COL1A1 in human skin fibroblasts; settings: 24 hours, mRNA by qPCR
Experimental: as §1, §3, §2
as §3, with “PPARGC1B-Hs00993805_m1, SPATA5-Hs01047535_m1, EN1-Hs00154977_m1).” for “COL4A1-Hs00266237_m1, BNC2-Hs00417700_m1, EDAR-Hs00223468_m1).”

PPARGC1B = PPARGC1B gene expression (qPCR) in human skin fibroblasts; settings: 24 hours, Non-treated = 1.00
Experimental: as §1
as §3, with “PPARGC1B-Hs00993805_m1, SPATA5-Hs01047535_m1, EN1-Hs00154977_m1).” for “COL4A1-Hs00266237_m1, BNC2-Hs00417700_m1, EDAR-Hs00223468_m1).”
For example, PPARGC1B, one of co-activators of peroxisome proliferator activated receptor-γ (PPARγ), has been known to be associated with melanogenesis in the skin. PPARGC1B has been reported to be involved in the wrinkle formation by mitochondrial dysfunction and the wrinkle reduction by mitochondrial function recovery (Cell Death & Disease volume 9, Article number: 735 (2018)). Therefore, the increased expression level of PPARGC1B serves to restore the function of mitochondria, which are cell energy producing organelles, thereby preventing and recovering from nasolabial wrinkles, which are deeply indented wrinkles accumulated over a relatively long time. That is, it can be seen that the increase in expression level of PPARGC1B by the treatment with the substances of the present invention is effective in wrinkle improvement.

ADIPOQ = ADIPOQ gene expression (qPCR) in human skin fibroblasts; settings: 24 hours, FIG. 16
Experimental: as §1, §2
As another example, ADIPOQ, a gene expressing adiponectin, is a substance primarily secreted in adipose tissue, and ADIPOQ in the skin is mainly known for anti-inflammatory effects thereof. […]

[2] = test system: Type III collagen (COL3A1); assay: collagen mRNA synthesis promotion (qPCR), COL3A1 in human skin fibroblasts; settings: 24 hours, mRNA by qPCR
Experimental: as §1
as §3, with “Thereafter, mRNA was obtained using an RNA-spin total RNA extraction kit (iNtRON Biotechnology, 17211), and cDNA was synthesized using a cDNA synthesis kit (PhileKorea Technology, ET21100).” left out
To analyze the efficacy of promoting collagen mRNA synthesis, human skin fibroblasts were dispensed on a 6-well plate at 1.5×10^5 cells/well and cultured in an incubator (37 °C, 5% CO2) for 24 hours. […] The expression level of each gene was analyzed by performing qPCR using the synthesized cDNA and taqman probes (assay ID: COL1A1-Hs00164004_m1, COL3A1-Hs00943809_m1, PPARGC1B-Hs00993805_m1, SPATA5-Hs01047535_m1, EN1-Hs00154977_m1).

EDAR = EDAR gene expression (qPCR) in human skin fibroblasts; settings: 24 hours, FIG. 7
Experimental: as §1
as §3, with “EDAR-Hs00223468_m1). […]” for “EDAR-Hs00223468_m1).”

BNC2 = BNC2 gene expression (qPCR) in human skin fibroblasts; settings: 24 hours, FIG. 6
Experimental: as §1, §3
The degrees of fine wrinkle improvement by the substances of the present invention were investigated on the basis of the polymorphism markers showing correlations with the degree of skin fine wrinkles, obtained through Example 1. […]

SPATA5 = SPATA5 gene expression (qPCR) in human skin fibroblasts; settings: 24 hours, Untreated = 1.00
Experimental: as §1
as §3, with “PPARGC1B-Hs00993805_m1, SPATA5-Hs01047535_m1, EN1-Hs00154977_m1).” for “COL4A1-Hs00266237_m1, BNC2-Hs00417700_m1, EDAR-Hs00223468_m1).”
Although the role of SPATA5 in the skin has not been studied, SPATA5 may play a role in mitochondrial function and ATP production. […]

Compound | expression of Type IV collagen (COL4A1) [1] | expression of Type I collagen (COL1A1) (Type I collagen (COL1A1)) | further results
COc1cc(/C=C/C(=O)NCCc2c[nH]c3ccc(O)cc23)ccc1O [N-feruloylserotonin] | promoted the expression |  | expression of SGPP2 (SGPP2): inhibited the expression
CC12CCC(CC1=O)C2(C)C (centres unmarked) [camphor] |  | promoted the expression | Gene expression level (PPARGC1B) (PPARGC1B): 2.63
Cc1cc(O)c2c(c1)C(=O)c1cc(O)cc(O)c1C2=O [emodin] | promoted the expression | promoted the expression | expression of ADIPOQ (ADIPOQ): increased the expression
COc1ccc(-c2coc3cc(O)ccc3c2=O)cc1 [formononetin] | promoted the expression | promoted the expression | expression of ADIPOQ (ADIPOQ): increased the expression
C=C(C)[C@@H]1CC[C@]2(C)CC[C@@H]3[C@H](CC[C@H]4[C@@]3(C)CC[C@H]3C(C)(C)[C@@H](O)CC[C@]43C)[C@@H]12 [lupeol] |  |  | expression of Type III collagen (COL3A1) [2]: promoted the expression; expression of EDAR (EDAR): increased the expression
NC(=O)c1cccnc1 [niacinamide] |  | promoted the expression | Gene expression level (PPARGC1B) (PPARGC1B): 1.52
O=C(CCc1ccc(O)cc1)c1c(O)cc(O)cc1O [phloretin] | promoted the expression | promoted the expression | expression of Type III collagen (COL3A1) [2]: promoted the expression; expression of BNC2 (BNC2): inhibited the expression
Cc1ncc(CO)c(CO)c1O.Cl [pyridoxine HCl] |  | promoted the expression | Expression level of gene (SPATA5) (SPATA5): 1.36
O=C[C@@H](O)[C@@H](O)[C@H](O)[C@H](O)COP(=O)([O-])[O-].[Na+].[Na+] [sodium mannose phosphate, D-mannose-6-phosphate sodium salt] |  | promoted the expression | Gene expression level (PPARGC1B) (PPARGC1B): 1.53
NC[C@H]1CC[C@H](C(=O)O)CC1 [tranexamic acid, reference compound] |  | promoted the expression | Expression level of gene (SPATA5) (SPATA5): 1.21
fucoidan | promoted the expression |  | expression of SGPP2 (SGPP2): inhibited the expression
